The target in experiment [1] is T1, PTP1BS187C lite/FKBP12 (Homo sapiens, UniProt P18031+P62942, C121S/C32S/C92V/S187C).
T1 construct: residues 1-293 containing C32S/C92V/C121S/S187C; made in house
In words: Ternary complex formation by SEC and SDS-PAGE. It is filed as binding. The following applies: SEC profile and SDS-PAGE of elution peaks. The protocol:
A 1:2:2 molar ratio of compound, presenter protein, and target protein are mixed together in 12.5 mM HEPES pH 7.4, 75 mM NaCl buffer containing 2% DMSO. The reaction is incubated at 37° C. for 30 min, followed by overnight incubation at room temperature. Pure complex is isolated by Size Exclusion Chromatography (SEC) purification. The reaction mixture is directly injected on a Superdex 75 column (CV 120 mL) pre-equilibrated with buffer containing 12.5 mM HEPES pH 7.4, 75 mM NaCl. Complex elutes at a higher molecular weight than unreacted target protein and presenter protein. To confirm presence of complex in the elution peak, samples are assessed by SDS-PAGE.
Experimental Protocol: A 1:3:3 molar ratio of C3-SLF, FKBP12, and PTP1BS187C lite are mixed together in 12.5 mM HEPES pH 7.4, 75 mM NaCl buffer containing 4% DMSO. The reaction is incubated at 37° C. for 30 min, followed by overnight incubation at room temperature. Pure complex is isolated by Size Exclusion Chromatography (SEC) purification. The reaction mixture is directly injected on a Superdex 75 column (CV 120 mL) pre-equilibrated with buffer containing 12.5 mM HEPES pH 7.4, 75 mM NaCl. […] To confirm the presence of PTP1BS187C lite and FKBP12 in the elution peak, samples are also assessed by SDS-PAGE. […]

The target in experiment [2] is T2, KRASGTP/G12C (Homo sapiens, UniProt P01116+P62942, G12C).
T2 construct: KRASGTP/G12C (in-house, residues 1-169); made in house
In words: Disulfide cross-linking efficiency by mass spectrometry, with or without FKBP12. The format is binding. The following applies: 2 μM KRAS, 10 μM ligand, 4 hours RT, MS. As to the method: Experimental protocol: In order to follow the kinetics of disulfide crosslinking reactions, Agilent 6230 TOF-LC/MS and Agilent 1260 HPLC instruments employing a AdvanceBio RP-mAb C4 column (2.1×100 mm, 3.5 μm) and equipped with an auto-sampler were used. HPLC grade acetonitrile and water (each containing 1.0 mM ammonium formate and 1% formic acid by volume) were used as mobile phase with the following ramp: 0.6 ml/min flow rate, water:acetonitrile=95:5 from 0.0 to 13.0 min ramping to water:acetonitrile=5:95 from 13.0 to 17.0 min. Total time=17.0 min.
All crosslinking reactions were performed in 1.5 mL amber colored glass vials equipped with 0.5 mL glass inserts. A water-soluble peptide (SEQ ID NO: 1: […]) was employed as an internal standard. Although the actual sequence of the internal standard is inconsequential, choice of amino acid residues were critical to avoid interference in the crosslinking assays. […] All reactions and standard solutions were prepared in HEPES (pH 7.4, 1.0 mM MgCl2) buffer.
Prior to every reaction, a standard curve was obtained for the individual components using a series of standard solutions (an example of standard curve analysis for FKBP12 is shown in Table 3 below). Using the data from standard curve, μmol of protein samples were plotted against the ratio of areas (sample:std) and a linear fit (y=mx+c) was employed to obtain the slope and intercept. The value of slope and intercept involved in these standard curves were accounted for during evaluation of the substrate and product concentration before and during the course of the reaction. For every substrate/product, an initial injection was followed up by a blank injection to verify presence of any residual protein/reagents. Based on this analysis the sequence of auto-sampler can be adjusted to included appropriate number of blank injections for removal of residual components, if any. The MS spectra were analyzed using Agilent MassHunter v B.07.0 software.
In a representative experiment to assess the presenter dependency of ligand cross-linking on the target protein, KRASGTP/G12C and either C3- or C4-SLF ligand were incubated in the presence or absence of FKBP12 at concentrations of 2 μM KRAS, 10 μM FKBP12, 10 μM C3- or C4-SLF for 4 hours at room temperature in 12.5 mM HEPES pH 7.4, 75 mM NaCl, 1 mM MgCl2, 3% DMSO. Analysis of the amount of KRAS undergoing disulfide cross-linking with the ligand using the method above.

Experiment [3] deals with T2, KRASGTP/G12C. In words: Cross-linking gel shift assay (12% SDS-PAGE), with or without FKBP12. It is filed as binding. The following applies: 60 μM KRAS, 180 μM FKBP12, 180 μM ligand, quenched by MMTS. As to the method: In parallel to mass spectrometry analysis, cross-linking reactions with C3- or C4-SLF were subjected to gel shift assay using 12% SDS-PAGE in the presence or absence of FKBP12 at the same experimental condition described above except that cross-linking reactions were set up at higher concentrations (60 μM KRAS, 180 μM FKBP12, and 180 μM C3- or C4-SLF) and they were quenched by MMTS to terminate the reaction.

The target of experiment [4] is T3, FKBP12-PTP1BS187C (Homo sapiens, UniProt P18031+P62942, C121S/C32S/C92V/S187C).
T3 construct: residues 1-293 containing C32S/C92V/C121S/S187C; made in house
Description: Crystal structure of FKBP12-C3SLF-PTP1BS187C ternary complex. The protocol: Experimental Protocol: […] and FKBP12 were added to PTP1B[…] lite at 3:1 molar excess in 12.5 mM HEPES pH 7.4, 75 mM NaCl buffer, 4% DMSO, and incubated 36-72 hours at 4° C. Pure complex was isolated by size exclusion chromatography on a Superdex 75 column in 12.5 mM HEPES pH 7.4 and 75 mM NaCl. Purified complex (at 15 mg/ml) was subjected to crystallization screening at 20° C. using sitting drop vapor diffusion method. Crystals were grown in a well solution containing 0.2 M Magnesium Acetate, 20% w/v PEG 3350. For data collection, crystals were transferred to a solution containing mother liquor supplemented with 25% PEG400, and then frozen in liquid nitrogen. Diffraction datasets were collected at the Advanced Photon Source (APS) and processed with the XDS program. Molecular replacement solutions were obtained using the program PHASER in the CCP4 suite, using the published structure of FKBP12 (PDB-ID 2PPN) and PTP1B (PDB-ID 2NT7) as search models. Subsequent model building and refinement were performed according to standard protocols with the software packages CCP4 and COOT.

Experiment [5] concerns the target MCL1S245C/FKBP52 (Homo sapiens, UniProt Q02790+Q07820, C286S/S245C). In words: Crystal structure of MCL1S245C/C3SLF/FKBP52 ternary complex. The following applies: 3.0 Å. The protocol: Experimental Protocol: […] and FKBP52 were mixed with MCL1[…] lite at 3:1 molar excess in 12.5 mM HEPES pH 7.4, 75 mM NaCl buffer, 2% DMSO, and incubated 24-48 hours at 4° C. Pure complex was isolated by size exclusion chromatography on a Superdex 75 column in 12.5 mM HEPES pH 7.4 and 75 mM NaCl. Purified complex (at 15 mg/ml) was subjected to crystallization screening at 20° C. using sitting drop vapor diffusion method. Crystals were grown in a well solution containing 2.1 M Malic acid. For data collection, crystals were transferred to a solution containing mother liquor supplemented with 20% glycerol, and then flash-frozen in liquid nitrogen. 3.0 Å resolution diffraction dataset was measured at the Advanced Photon Source (APS) and processed with the XDS program. Molecular replacement solutions were obtained using the program PHASER in the CCP4 suite, using the published structure of FKBP52 (PDB-ID 1N1A) and […] (PDB-ID 3MK8) as search models. Subsequent model building and refinement were performed according to standard protocols with the software packages CCP4 and COOT.

The values that follow come from US9989535B2, “Methods and reagents for analyzing protein-protein interfaces” (Warp Drive Bio, Inc., priority 2015, dated 2018).

MCL1S245C/FKBP52, sequence (Q07820 172-327 S245C/C286S): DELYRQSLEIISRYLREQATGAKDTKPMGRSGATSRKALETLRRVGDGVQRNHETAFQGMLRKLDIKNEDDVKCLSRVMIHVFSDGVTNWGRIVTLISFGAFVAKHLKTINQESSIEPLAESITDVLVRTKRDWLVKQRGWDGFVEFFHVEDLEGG
MCL1S245C/FKBP52, sequence (Q02790 1-140): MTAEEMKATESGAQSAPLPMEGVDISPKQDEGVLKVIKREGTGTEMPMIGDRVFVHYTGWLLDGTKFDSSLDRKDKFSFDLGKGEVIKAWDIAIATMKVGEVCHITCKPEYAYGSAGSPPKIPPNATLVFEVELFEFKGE
T1 sequence (P18031 1-293 C32S/C92V/C121S/S187C limits assumed): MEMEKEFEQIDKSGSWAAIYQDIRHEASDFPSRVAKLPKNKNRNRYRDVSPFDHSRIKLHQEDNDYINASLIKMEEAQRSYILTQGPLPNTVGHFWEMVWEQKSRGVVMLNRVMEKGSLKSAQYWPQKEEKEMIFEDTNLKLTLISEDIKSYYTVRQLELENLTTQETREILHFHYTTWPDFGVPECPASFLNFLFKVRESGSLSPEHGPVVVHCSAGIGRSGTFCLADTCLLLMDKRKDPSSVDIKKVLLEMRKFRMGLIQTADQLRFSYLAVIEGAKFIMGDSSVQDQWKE
T1 sequence (P62942 whole entry, the tested form may be a part): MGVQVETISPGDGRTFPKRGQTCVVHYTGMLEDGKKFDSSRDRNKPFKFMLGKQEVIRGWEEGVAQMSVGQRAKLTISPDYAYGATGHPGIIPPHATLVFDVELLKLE
T3 sequence (P18031 1-293 C32S/C92V/C121S/S187C limits assumed): as the sequence (P18031 1-293 C32S/C92V/C121S/S187C limits assumed) above
T3 sequence (P62942 whole entry, the tested form may be a part): as the sequence (P62942 whole entry, the tested form may be a part) above

In the case of `CCC(C)(C)C(=O)C(=O)N1CCCC[C@H]1C(=O)O[C@H](CCc1ccc(OC)c(OC)c1)c1cccc(NC(=O)CCSSc2ccccn2)c1` [Compound C3-SLF, (R)-3-(3,4-dimethoxyphenyl)-1-(3-(3-(pyridin-2-yldisulfanyl)propanamido)phenyl)propyl (S)-1-(3,3-dimethyl-2-oxopentanoyl)piperidine-2-carboxylate], in experiment [1], the “Formation of PTP1BS187C lite/C3-SLF/FKBP12 complex” value is given as “confirm the formation”. Also, the entries for the “% × link to KRAS” value in experiment [2] (FKBP12 absent (−)) and in experiment [2] (FKBP12 present (+) 10 μM) were 9.6% and 47.5%, respectively. Also, the “Ligand cross-linking efficiency in the presence of FKBP12, gel shift” value in experiment [3] is reported as “boosted significantly”. Also, in experiment [4], the “Buried surface area of ligand” value is given as 615 Å^2. Further, the “Buried surface area of the complex contributed by ligand” value in experiment [5] is on record as 606 Å2.
